# Measurements: patent US7422733B2, “Linkable sialyl Lewis X analogs” (Bracco International B.V., priority 2000, dated 2008)
# Columns and labels:
# E-selectin [1] = biological target: T1, E-selectin (Homo sapiens, UniProt P16581); settings: in vitro, published value; cited from earlier work
# T1 sequence (P16581 22-610): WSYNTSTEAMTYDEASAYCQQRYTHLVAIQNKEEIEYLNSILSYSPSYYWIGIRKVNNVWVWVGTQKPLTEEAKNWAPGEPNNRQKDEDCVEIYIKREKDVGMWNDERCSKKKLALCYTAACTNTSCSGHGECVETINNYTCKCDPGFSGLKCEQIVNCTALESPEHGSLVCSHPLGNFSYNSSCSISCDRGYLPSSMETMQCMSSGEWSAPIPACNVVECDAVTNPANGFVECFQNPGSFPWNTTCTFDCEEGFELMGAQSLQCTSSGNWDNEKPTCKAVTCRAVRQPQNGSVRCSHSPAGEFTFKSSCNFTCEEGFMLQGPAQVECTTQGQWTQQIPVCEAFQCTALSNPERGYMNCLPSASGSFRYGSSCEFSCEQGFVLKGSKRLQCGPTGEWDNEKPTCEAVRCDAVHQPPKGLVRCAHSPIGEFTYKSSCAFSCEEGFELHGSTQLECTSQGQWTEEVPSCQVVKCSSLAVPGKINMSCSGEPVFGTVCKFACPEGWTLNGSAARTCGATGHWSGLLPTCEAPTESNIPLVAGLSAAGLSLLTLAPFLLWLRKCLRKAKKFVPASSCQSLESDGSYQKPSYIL
# E-selectin [2] = biological target: T1, E-selectin; assay: binding of radiolabeled analog 3b to human aortic endothelial cells in vitro (E-selectin binding assay); design: endogenous in cells; host or cells: human aortic endothelial cells, stimulated with TNF-alpha or unstimulated
# Method: We evaluated the ability of the radiolabeled acetamido-phenyl Sialyl Lewis^x analog 3b to bind to human aortic endothelial cells in vitro. […] S. A. DeFrees et al., J. Am. Chem. Soc., 117:66-79 (1995). […] The binding sites were specific to native Sialyl Lewis^x, since it was shown that cold unlabeled Sialyl Lewis^x (formula A) at a concentration of 10 mM displaced close to 50% of the bound counts at 0.2 mM concentration.
"displacement of bound counts (E-selectin [2]; cold unlabeled competitor at 10 mM, bound 3b counts at 0.2 mM)",behaviour in E-selectin binding assay compared to native Sialyl Lewis^x (E-selectin [2]),"concentrations at which the analog bound significantly (E-selectin [2]; activated human aortic endothelial cells, 14C-labeled analog)",increase in the extent of binding in TNF-α stimulated cells over unstimulated control cells (E-selectin [2]; cells stimulated with TNF-α vs unstimulated control cells),binding relative to published Kd of native Sialyl Lewis^x (E-selectin [2]; compared with published value of 1-2 mM),Compound,Kd (E-selectin [1])
~50%,,,,,"CC(=O)NC1C(O)OC(CO)C(OC2OC(CO)C(O)C(OC3(C(=O)O)CC(O)C(NC(C)=O)C([C@H](O)[C@H](O)CO)O3)C2O)C1OC1OC(C)C(O)C(O)C1O (stereo partly drawn) [Sialyl Lewis^x, sialyl Lewis X]",1000 to 2000 µM
,superior to native Sialyl Lewis^x,0.1-0.2 mM,two-fold increase,ten fold greater,CC(=O)N[C@H]1[C@H](Oc2ccc(N[14C](C)=O)cc2)O[C@H](CO)[C@@H](O[C@@H]2O[C@H](CO)[C@H](O)[C@H](O[C@]3(C(=O)O)C[C@H](O)[C@@H](NC(C)=O)[C@H]([C@H](O)[C@H](O)CO)O3)[C@H]2O)[C@@H]1O[C@@H]1O[C@@H](C)[C@@H](O)[C@@H](O)[C@@H]1O [compound 3b],
